Common to all, as to experiment: NCI anticancer screen, dose series, 48 h
Assay [1] has as its system SF-295.
The test system of assay [2] is RXF 393.
Assay [3] concerns M14.
Assay [4] has as its system LOX IMVI.
For assay [5], the system named is UACC-257.
Assay [6] relates to IGROV-1.
For assay [7], the system named is A498.
The subject of assay [8] is K562.
The subject of assay [9] is HT-29.
Assay [10] relates to COLO 205.
In assay [11] the test system is 786-0.
Assay [12] has as its system SF-268.
Assay [13] concerns HL-60.
Assay [14] relates to SK-OV-3.
Assay [15] concerns A549.
In assay [16] the test system is HOP-92.
Assay [17] concerns OVCAR-5.
Assay [18] relates to RPMI-8226.

Each structure is given as a SMILES string.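 Dose response: 5 concentrations. Exposure: 48 h. Format: 96-well plates. Endpoint: linear interpolation; highest concentration if not reached. GI50 = concentration required for 50% inhibition of growth.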 The source made the active and inactive calls. Rule as the data show it: active = GI50 up to about 1.1 µM and inactive = higher. Where only a bound is given, the exact number is not on record here.

For the molecule `CCc1cccc(CC)c1NC(=O)/C(Cl)=C(/Cl)C(=O)O`, the GI50 in assay [1] is > 100 µM (inactive); in [2], 28.9 µM (inactive); in assay [3], 17.1 µM (inactive); in [4] it was > 100 µM (inactive); in [5], 24.1 µM (inactive); in assay [6] it was 32.2 µM (inactive). Besides, the GI50 was > 100 µM (inactive) in assay [7]; 11.6 µM (inactive) in assay [8]; 35 µM (inactive) in assay [9]; 13.9 µM (inactive) in [10]; > 42.1 µM (inactive) in assay [11]; 40.3 µM (inactive) in [12]. Also, the GI50 is 5.05 µM (inactive) in assay [13]; > 100 µM (inactive) in [14]; > 69.5 µM (inactive) in assay [15]; 21.7 µM (inactive) in [16]; > 100 µM (inactive) in [17]; 32.1 µM (inactive) in [18].

Take `CCC(O)c1ccc(/N=C/c2ccccc2O)cc1` (stereo not given): the GI50 in [1], in assay [2], in assay [3], in [4], in assay [6] and in [7] was > 100 µM (inactive) each time. Also, the GI50 in assay [8] is > 100 µM (inactive); in assay [9] it was > 100 µM (inactive); in assay [10], 49.9 µM (inactive); in assay [11] it was > 100 µM (inactive); in [12] it was > 100 µM (inactive); in assay [13] it was > 100 µM (inactive). Further, the GI50 in assay [14], in assay [15], in assay [16], in assay [17] and in [18] was > 100 µM (inactive) in each case.

Regarding `COC(=O)C1C(O)CC(c2ccccn2)N(Cc2ccccc2)C1c1ccccn1` (stereo not given), the GI50 in assay [1], in [2], in assay [3], in [4], in assay [5] and in assay [6] was > 100 µM (inactive) in each case. Moreover, the GI50 in assay [7] was > 100 µM (inactive); in [8], 44.4 µM (inactive); in assay [9], > 100 µM (inactive); in assay [10], > 100 µM (inactive); in [11], > 100 µM (inactive); in [12], > 100 µM (inactive). The GI50 was 15.6 µM (inactive) in assay [13]; > 100 µM (inactive) in assay [14]; > 100 µM (inactive) in assay [15]; > 100 µM (inactive) in assay [16]; > 100 µM (inactive) in [17]; 23.4 µM (inactive) in assay [18].

With `Cn1nc(S(N)(=O)=O)s/c1=N/S(=O)(=O)c1ccc(N)cc1`, the GI50 in assay [1], in [2], in [3], in [7], in assay [9] and in assay [10] was > 100 µM (inactive) each time. The GI50 in assay [11], in assay [12], in assay [14], in [15], in [16] and in [17] was > 100 µM (inactive) each time. Moreover, the GI50 in [18] is > 100 µM (inactive).

As for `O=C1CCC2SC1CCC2=O`, the GI50 in assay [1], in assay [2], in assay [3], in assay [4], in [5] and in assay [6] was > 100 µM (inactive) in each case. Also, the GI50 in assay [7], in assay [8], in [9], in assay [10], in [11] and in assay [12] was > 100 µM (inactive) each time. The GI50 in assay [13], in assay [14], in assay [15], in assay [16] and in assay [17] was > 100 µM (inactive) throughout.

In the case of `COC(=O)c1ccc(Cc2ccc(C(=O)OC)o2)o1`, the GI50 in [1] is > 378 µM (inactive); in assay [2] it was 282 µM (inactive); in [4], > 378 µM (inactive); in assay [5] it was > 378 µM (inactive); in [6] it was > 378 µM (inactive); in assay [8] it was > 378 µM (inactive). The GI50 in [9], in assay [10], in assay [11], in assay [12], in assay [13] and in assay [14] was > 378 µM (inactive) throughout. In addition, the GI50 in [15], in assay [16], in [17] and in assay [18] was > 378 µM (inactive) in each case.

For the molecule `Cc1ccc(Nc2ccc(Nc3ccc(C)cc3)c3c2C(=O)c2c(O)ccc(O)c2C3=O)cc1`, the GI50 in [1], in assay [2], in assay [3], in [4], in assay [5] and in [6] was > 100 µM (inactive) each time. Besides, the GI50 in assay [7] was > 100 µM (inactive); in [8], > 100 µM (inactive); in assay [10], > 100 µM (inactive); in assay [11] it was > 100 µM (inactive); in assay [12], > 100 µM (inactive); in assay [13], 80.9 µM (inactive). The GI50 in assay [14], in [15], in [16], in [17] and in assay [18] was > 100 µM (inactive) in each case.

As for `Nc1nc2c(nnn2C2C=C(CO)C(O)C2O)c(=O)[nH]1` (stereo not given), the GI50 in assay [1] is > 100 µM (inactive); in [2], 78 µM (inactive); in [3], > 100 µM (inactive); in assay [4], 27.9 µM (inactive); in [5] it was > 100 µM (inactive); in assay [6], > 100 µM (inactive). The GI50 is > 100 µM (inactive) in assay [7]; > 100 µM (inactive) in [8]; > 100 µM (inactive) in assay [9]; > 100 µM (inactive) in [10]; 68.5 µM (inactive) in assay [11]; > 100 µM (inactive) in assay [12]. In addition, the GI50 in assay [14], in assay [15], in assay [16] and in assay [17] was > 100 µM (inactive) in each case.

Regarding `COC(=O)C(=O)C(C(=O)C1=NS(=O)(=O)c2cc(S(N)(=O)=O)c(Cl)cc2N1)c1nc2ccc(C(=O)c3ccccc3)cc2nc1O` (stereo not given), the GI50 is 72.4 µM (inactive) in assay [1]; > 100 µM (inactive) in assay [2]; > 100 µM (inactive) in assay [3]; 71.6 µM (inactive) in [5]; > 100 µM (inactive) in assay [6]; 51.5 µM (inactive) in assay [7]. The GI50 in [8] is 40 µM (inactive); in assay [9], > 100 µM (inactive); in [10], > 100 µM (inactive); in assay [11] it was > 100 µM (inactive); in assay [12] it was > 100 µM (inactive); in assay [15], > 100 µM (inactive). The values for the GI50 in [17] and in assay [18] were 58.7 µM (inactive) and > 100 µM (inactive), respectively.

Turning to `CN1CC(=O)N(C)c2ncn(Cc3ccccc3)c2C1=O`, the GI50 in [1], in assay [2], in assay [3], in [4], in [6] and in assay [7] was > 100 µM (inactive) in each case. For the same molecule, the GI50 in [8] was > 100 µM (inactive); in assay [9], > 100 µM (inactive); in assay [10], > 100 µM (inactive); in assay [11], > 100 µM (inactive); in assay [12], 12.2 µM (inactive); in assay [13], > 100 µM (inactive). Besides, the GI50 in [14], in assay [15] and in assay [18] was > 100 µM (inactive) each time.

Consider `CC(C)(Oc1ccc2c(=O)cc(-c3ccccc3)oc2c1)C(=O)Nc1c(Cl)cccc1Cl`, for which the GI50 in assay [1] is > 100 µM (inactive); in assay [2] it was < 0.01 µM (active); in [3], > 100 µM (inactive); in [4] it was > 100 µM (inactive); in assay [5], > 100 µM (inactive); in assay [6] it was > 100 µM (inactive). Further, the GI50 in assay [7] was > 100 µM (inactive); in [8], 12.1 µM (inactive); in assay [9] it was > 100 µM (inactive); in assay [11] it was 97.1 µM (inactive); in assay [12], > 100 µM (inactive); in assay [13], 44.3 µM (inactive). For the same molecule, the GI50 was > 100 µM (inactive) in [14]; 67.1 µM (inactive) in assay [15]; 20.1 µM (inactive) in assay [16]; > 100 µM (inactive) in assay [17]; 47.8 µM (inactive) in assay [18].

For `Oc1ncnc2c1CCCN2`, the GI50 in assay [1], in assay [2], in [3], in assay [4], in assay [5] and in [6] was > 100 µM (inactive) throughout. Further, the GI50 in assay [8], in assay [9], in assay [10], in assay [11], in assay [12] and in [13] was > 100 µM (inactive) throughout. For the same molecule, the GI50 in assay [14], in assay [15], in assay [16], in assay [17] and in [18] was > 100 µM (inactive) throughout.

These data come from ChEMBL document CHEMBL1201862, “PubChem BioAssay data set” (2004).
